The compounds below were run against T1, full length active recombinant SYK enzyme (Homo sapiens, UniProt P43405) (assay: Inhibition of Syk tyrosine phosphorylation activity (LANCE TR-FRET kinase assay)). Conditions: 1 nM SYK, 550 nM substrate, 100 μM ATP, 1 hour room temperature.
T1 construct: full length active recombinant SYK enzyme (Millipore, Calif.); purchased Millipore
Type: biochemical
Compound Cc1nsc(Nc2nc(N[C@@H]3CCCC[C@@H]3N)ncc2C(N)=O)c1I [Example 231, 2-(((1R,2S)-2-aminocyclohexyl)amino)-4-((4-iodo-3-methylisothiazol-5-yl)amino)pyrimidine-5-carboxamide] has an IC50 of 10 to 100 nM.
Cc1nsc(Nc2nc(N[C@@H]3CCCC[C@@H]3N)ncc2C(N)=O)c1Cl [Example 232, 2-(((1R,2S)-2-aminocyclohexyl)amino)-4-((4-chloro-3-methylisothiazol-5-yl)amino)pyrimidine-5-carboxamide] showed an IC50 of 10 to 100 nM.
Compound NC(=O)c1cnc(N[C@@H]2CCC[C@H](F)[C@@H]2N)nc1Nc1cccc(-n2nccn2)c1 [Example 235, 4-(3-(2H-1,2,3-triazol-2-yl)phenylamino)-2-((1R,2R,3S)-2-amino-3-fluorocyclohexylamino)pyrimidine-5-carboxamide] has an IC50 of 10 to 100 nM.
With NC(=O)c1cnc(N[C@@H]2CCC[C@H](F)[C@@H]2N)nc1Nc1cccc(-c2ncccn2)c1 [Example 236, 2-((1R,2R,3S)-2-amino-3-fluorocyclohexylamino)-4-(3-(pyrimidin-2-yl)phenylamino)pyrimidine-5-carboxamide] the IC50 was 10 to 100 nM.
NC(=O)c1cnc(N[C@@H]2CCC[C@H](F)[C@@H]2N)nc1Nc1ccc2ncccc2c1 [Example 237, 2-((1R,2R,3S)-2-amino-3-fluorocyclohexylamino)-4-(quinolin-6-ylamino)pyrimidine-5-carboxamide] gave an IC50 of 10 to 100 nM.
In the case of NC(=O)c1cnc(N[C@@H]2CCC[C@H](F)[C@@H]2N)nc1Nc1cccc(-n2cccn2)c1 [Example 238, 4-(3-(1H-pyrazol-1-yl)phenylamino)-2-((1R,2R,3S)-2-amino-3-fluorocyclohexylamino)pyrimidine-5-carboxamide], the IC50 is reported as 10 to 100 nM.
For NC(=O)c1cnc(N[C@@H]2CCC[C@H](F)[C@@H]2N)nc1Nc1ccc2ncsc2c1 [Example 239, 2-((1R,2R,3S)-2-amino-3-fluorocyclohexylamino)-4-(benzo[d]thiazol-6-ylamino)pyrimidine-5-carboxamide], the IC50 was 10 to 100 nM.
For Cn1ncc2c(Nc3nc(N[C@@H]4CCC[C@H](F)[C@@H]4N)ncc3C(N)=O)cccc21 [Example 240, 2-((1R,2R,3S)-2-amino-3-fluorocyclohexylamino)-4-(1-methyl-1H-indazol-4-ylamino)pyrimidine-5-carboxamide], the IC50 was 10 to 100 nM.
Compound NC(=O)c1cnc(N[C@@H]2CCC[C@H](F)[C@@H]2N)nc1Nc1cnc2ccccc2c1 [Example 241, 2-((1R,2R,3S)-2-amino-3-fluorocyclohexylamino)-4-(quinolin-3-ylamino)pyrimidine-5-carboxamide] has an IC50 of 100 to 1000 nM.
In the case of Cc1ccc(Nc2ncc(C(N)=O)c(N[C@H]3CC[C@H](N)CC3)n2)cc1 [Example 244, 4-(trans-4-aminocyclohexylamino)-2-(p-tolylamino)pyrimidine-5-carboxamide], the IC50 is reported as 100 to 1000 nM.
Compound COc1ccc(Nc2ncc(C(N)=O)c(N[C@H]3CC[C@H](N)CC3)n2)cc1 [Example 245, 4-(trans-4-aminocyclohexylamino)-2-(4-methoxyphenylamino)pyrimidine-5-carboxamide] has an IC50 of 100 to 1000 nM.
Work on NC(=O)c1cnc(N[C@@H]2CCCC[C@@H]2N)nc1Nc1cc(-n2cccn2)cc(-n2cccn2)c1 [Example 249, 2-(((1R,2S)-2-aminocyclohexyl)amino)-4-((3,5-di(1H-pyrazol-1-yl)phenyl)amino)pyrimidine-5-carboxamide] yielded an IC50 of 1 to 10 nM.
Compound CC[C@@H](Nc1ncc(C(N)=O)c(Nc2cc(-n3cccn3)cc(-n3cccn3)c2)n1)C(N)=O [Example 250, (R)-2-((1-amino-1-oxobutan-2-yl)amino)-4-((3,5-di(1H-pyrazol-1-yl)phenyl)amino)pyrimidine-5-carboxamide] has an IC50 of 100 to 1000 nM.
NC(=O)c1cnc(N[C@@H]2CCCC[C@@H]2N)nc1Nc1cccc(-n2ncc[n+]2[O-])c1 [Example 251, 2-(3-((2-(((1R,2S)-2-aminocyclohexyl)amino)-5-carbamoylpyrimidin-4-yl)amino)phenyl)-2H-1,2,3-triazole 1-oxide] gave an IC50 of 10 to 100 nM.
In the case of NC(=O)c1cnc(N[C@@H]2CCCC[C@@H]2N)nc1Nc1cccc(-n2ncc(O)n2)c1 [Example 252, 2-(((1R,2S)-2-aminocyclohexyl)amino)-4-((3-(4-hydroxy-2H-1,2,3-triazol-2-yl)phenyl)amino)pyrimidine-5-carboxamide], the IC50 is reported as 1 to 10 nM.
Work on CC(=O)Oc1cnn(-c2cccc(Nc3nc(N[C@@H]4CCCC[C@@H]4N)ncc3C(N)=O)c2)n1 [Example 253, 2-(3-((2-(((1R,2S)-2-aminocyclohexyl)amino)-5-carbamoylpyrimidin-4-yl)amino)phenyl)-2H-1,2,3-triazol-4-yl acetate] yielded an IC50 greater than 1000 nM.
NC(=O)c1cnc(N[C@@H]2CCCC[C@@H]2N)nc1Nc1ccc(-c2ncco2)cc1 [Example 255, 2-(((1R,2S)-2-aminocyclohexyl)amino)-4-((4-(oxazol-2-yl)phenyl)amino)pyrimidine-5-carboxamide] showed an IC50 of 10 to 100 nM.

From patent US20140323418A1, “SELECTIVE KINASE INHIBITORS” (PORTOLA PHARMACEUTICALS, INC., priority 2011, published 2014)
